Test results as given in paper PMC3395597, “Structural Basis for the ABO Blood-Group Dependence of Plasmodium falciparum Rosetting” (PLoS Pathogens, 2012).

Biological target: Head(wt) (NTS-DBL1α1-CIDR1γ of PfEMP1-VarO) (Plasmodium falciparum, UniProt B7T1P0)
Assay: surface plasmon resonance (Biacore […]), immobilised trisaccharide-BSA
Format: binding
Conditions: labelled compound: multivalent BSA conjugate, 6 atom spacer, average 21 sugar residues per BSA; PBS, 25 °C; protein 10 nM-1 µM

C[C@@H]1O[C@@H](O[C@H]2C(O)O[C@H](CO)[C@H](O)[C@@H]2O[C@H]2O[C@H](CO)[C@H](O)[C@H](O)[C@H]2O)[C@@H](O)[C@H](O)[C@@H]1O (stereo partly shown) [blood group B trisaccharide]
surface plasmon resonance (Biacore 2000), immobilised trisaccharide-BSA: Direct binding of the recombinant Head(wt)domain to the blood group A and B trisaccharides
